The experiment addresses T1, Ct7OMT (Coptis teeta, UniProt A0A2Z5FRT2).
T1 construct: gene 7OMT
The experiment can be described thus: UPLC-QTOF-MS/MS product detection. The settings on record: SAM 0.1 mM, substrate 100 uM, pH 8.0, 30 C, 1 h. Type of experiment: biochemical.

T1 sequence (A0A2Z5FRT2 entry or part of it): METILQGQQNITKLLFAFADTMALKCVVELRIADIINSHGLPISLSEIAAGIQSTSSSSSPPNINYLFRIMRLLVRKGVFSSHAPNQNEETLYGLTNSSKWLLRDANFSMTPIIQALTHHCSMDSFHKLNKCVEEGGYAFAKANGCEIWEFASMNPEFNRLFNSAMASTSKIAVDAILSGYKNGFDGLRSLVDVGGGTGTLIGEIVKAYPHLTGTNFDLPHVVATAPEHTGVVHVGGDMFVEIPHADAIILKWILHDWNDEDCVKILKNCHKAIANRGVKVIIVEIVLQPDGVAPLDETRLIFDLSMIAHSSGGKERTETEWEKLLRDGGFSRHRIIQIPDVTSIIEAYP

Turning to `Oc1ccc(C[C@@H]2NCCc3cc(O)c(O)cc32)cc1` [compound 1, (S)-norcoclaurine], the UPLC-QTOF-MS/MS product detection entry is given as “Ct7OMT also O-methylates (S)-norcoclaurine at C6, yielding (S)-coclaurine”.

The values above are taken from paper PMC5995273, “Identification and Characterization of Genes Involved in Benzylisoquinoline Alkaloid Biosynthesis in Coptis Species” (Frontiers in Plant Science, 2018).
